PMC5951806, “Rapid labelling and covalent inhibition of intracellular native proteins using ligand-directed N-acyl-N-alkyl sulfonamide” (Nature Communications, 2018)

Columns and labels:
Experiment in all cases: TMT LC-MSMS of 11-labelled proteins
Type in all cases: cell-based
[1] = molecular target: 60 kDa heat shock protein, mitochondrial (HSPD1) (Homo sapiens, UniProt P10809)
[2] = molecular target: Fatty acid synthase (FASN) (Homo sapiens, UniProt P49327)
[3] = molecular target: T1, heat shock protein 75 kDa, mitochondrial (TRAP1) (Homo sapiens, UniProt Q12931)
T1 sequence (Q12931 60-704): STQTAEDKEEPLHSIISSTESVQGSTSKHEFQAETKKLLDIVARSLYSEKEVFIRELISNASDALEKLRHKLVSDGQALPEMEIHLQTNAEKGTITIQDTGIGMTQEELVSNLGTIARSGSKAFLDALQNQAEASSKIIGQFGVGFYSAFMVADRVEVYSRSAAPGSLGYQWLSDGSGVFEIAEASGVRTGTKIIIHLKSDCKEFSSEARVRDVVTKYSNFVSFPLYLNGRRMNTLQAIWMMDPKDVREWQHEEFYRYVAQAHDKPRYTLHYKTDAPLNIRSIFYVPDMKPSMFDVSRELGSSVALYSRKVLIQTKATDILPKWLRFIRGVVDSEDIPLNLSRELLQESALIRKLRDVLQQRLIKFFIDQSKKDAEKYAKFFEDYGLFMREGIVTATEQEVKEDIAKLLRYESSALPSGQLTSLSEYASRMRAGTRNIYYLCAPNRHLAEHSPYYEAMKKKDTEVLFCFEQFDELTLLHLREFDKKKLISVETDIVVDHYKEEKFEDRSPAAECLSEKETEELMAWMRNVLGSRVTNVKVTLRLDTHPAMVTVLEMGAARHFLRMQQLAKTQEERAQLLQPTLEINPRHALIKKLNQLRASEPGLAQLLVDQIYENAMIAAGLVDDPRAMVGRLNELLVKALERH

[4] = molecular target: Tubulin alpha-1B chain (TUBA1B) (Homo sapiens, UniProt P68363)
Sequence of Tubulin alpha-1B chain (TUBA1B) (P68363 whole entry): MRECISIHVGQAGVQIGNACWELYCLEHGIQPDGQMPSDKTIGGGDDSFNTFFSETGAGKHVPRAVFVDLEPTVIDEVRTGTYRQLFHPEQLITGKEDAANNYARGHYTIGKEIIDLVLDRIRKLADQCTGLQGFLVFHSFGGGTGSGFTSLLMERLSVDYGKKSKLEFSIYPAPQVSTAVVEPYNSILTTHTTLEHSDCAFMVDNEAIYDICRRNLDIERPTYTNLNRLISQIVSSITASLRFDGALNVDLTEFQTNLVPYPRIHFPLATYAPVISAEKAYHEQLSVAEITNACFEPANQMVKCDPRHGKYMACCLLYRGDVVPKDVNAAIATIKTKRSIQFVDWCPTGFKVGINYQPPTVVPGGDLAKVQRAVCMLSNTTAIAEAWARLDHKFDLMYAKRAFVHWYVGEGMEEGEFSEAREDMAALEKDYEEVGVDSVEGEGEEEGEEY
Sequence of Tubulin alpha-1B chain (TUBA1B) (P07437 whole entry partner): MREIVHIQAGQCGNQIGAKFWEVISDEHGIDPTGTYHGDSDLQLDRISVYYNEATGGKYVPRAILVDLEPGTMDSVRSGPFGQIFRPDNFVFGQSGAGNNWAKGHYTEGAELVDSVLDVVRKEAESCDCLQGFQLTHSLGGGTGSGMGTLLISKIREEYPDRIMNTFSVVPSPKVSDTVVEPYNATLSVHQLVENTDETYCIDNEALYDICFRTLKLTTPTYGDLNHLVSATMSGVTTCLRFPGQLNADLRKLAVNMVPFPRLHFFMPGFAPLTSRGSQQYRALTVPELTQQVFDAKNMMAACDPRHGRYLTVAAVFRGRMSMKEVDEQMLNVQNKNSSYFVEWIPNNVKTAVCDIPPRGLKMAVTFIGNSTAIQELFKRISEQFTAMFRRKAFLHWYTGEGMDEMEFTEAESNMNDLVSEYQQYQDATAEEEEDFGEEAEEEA

[5] = sheet Merged, SKBR3 cells, 11 0.5 µM 3 h vs DMSO
[6] = sheet Merged, SKBR3 cells, 11 0.5 µM 3 h vs with PU-H71 10 µM
[7] = sheet Exp1, SKBR3 cells, 11 0.5 µM 3 h vs DMSO
[8] = sheet Exp1, SKBR3 cells, 11 0.5 µM 3 h vs with PU-H71 10 µM

Sequence of Fatty acid synthase (FASN) (P49327 whole entry): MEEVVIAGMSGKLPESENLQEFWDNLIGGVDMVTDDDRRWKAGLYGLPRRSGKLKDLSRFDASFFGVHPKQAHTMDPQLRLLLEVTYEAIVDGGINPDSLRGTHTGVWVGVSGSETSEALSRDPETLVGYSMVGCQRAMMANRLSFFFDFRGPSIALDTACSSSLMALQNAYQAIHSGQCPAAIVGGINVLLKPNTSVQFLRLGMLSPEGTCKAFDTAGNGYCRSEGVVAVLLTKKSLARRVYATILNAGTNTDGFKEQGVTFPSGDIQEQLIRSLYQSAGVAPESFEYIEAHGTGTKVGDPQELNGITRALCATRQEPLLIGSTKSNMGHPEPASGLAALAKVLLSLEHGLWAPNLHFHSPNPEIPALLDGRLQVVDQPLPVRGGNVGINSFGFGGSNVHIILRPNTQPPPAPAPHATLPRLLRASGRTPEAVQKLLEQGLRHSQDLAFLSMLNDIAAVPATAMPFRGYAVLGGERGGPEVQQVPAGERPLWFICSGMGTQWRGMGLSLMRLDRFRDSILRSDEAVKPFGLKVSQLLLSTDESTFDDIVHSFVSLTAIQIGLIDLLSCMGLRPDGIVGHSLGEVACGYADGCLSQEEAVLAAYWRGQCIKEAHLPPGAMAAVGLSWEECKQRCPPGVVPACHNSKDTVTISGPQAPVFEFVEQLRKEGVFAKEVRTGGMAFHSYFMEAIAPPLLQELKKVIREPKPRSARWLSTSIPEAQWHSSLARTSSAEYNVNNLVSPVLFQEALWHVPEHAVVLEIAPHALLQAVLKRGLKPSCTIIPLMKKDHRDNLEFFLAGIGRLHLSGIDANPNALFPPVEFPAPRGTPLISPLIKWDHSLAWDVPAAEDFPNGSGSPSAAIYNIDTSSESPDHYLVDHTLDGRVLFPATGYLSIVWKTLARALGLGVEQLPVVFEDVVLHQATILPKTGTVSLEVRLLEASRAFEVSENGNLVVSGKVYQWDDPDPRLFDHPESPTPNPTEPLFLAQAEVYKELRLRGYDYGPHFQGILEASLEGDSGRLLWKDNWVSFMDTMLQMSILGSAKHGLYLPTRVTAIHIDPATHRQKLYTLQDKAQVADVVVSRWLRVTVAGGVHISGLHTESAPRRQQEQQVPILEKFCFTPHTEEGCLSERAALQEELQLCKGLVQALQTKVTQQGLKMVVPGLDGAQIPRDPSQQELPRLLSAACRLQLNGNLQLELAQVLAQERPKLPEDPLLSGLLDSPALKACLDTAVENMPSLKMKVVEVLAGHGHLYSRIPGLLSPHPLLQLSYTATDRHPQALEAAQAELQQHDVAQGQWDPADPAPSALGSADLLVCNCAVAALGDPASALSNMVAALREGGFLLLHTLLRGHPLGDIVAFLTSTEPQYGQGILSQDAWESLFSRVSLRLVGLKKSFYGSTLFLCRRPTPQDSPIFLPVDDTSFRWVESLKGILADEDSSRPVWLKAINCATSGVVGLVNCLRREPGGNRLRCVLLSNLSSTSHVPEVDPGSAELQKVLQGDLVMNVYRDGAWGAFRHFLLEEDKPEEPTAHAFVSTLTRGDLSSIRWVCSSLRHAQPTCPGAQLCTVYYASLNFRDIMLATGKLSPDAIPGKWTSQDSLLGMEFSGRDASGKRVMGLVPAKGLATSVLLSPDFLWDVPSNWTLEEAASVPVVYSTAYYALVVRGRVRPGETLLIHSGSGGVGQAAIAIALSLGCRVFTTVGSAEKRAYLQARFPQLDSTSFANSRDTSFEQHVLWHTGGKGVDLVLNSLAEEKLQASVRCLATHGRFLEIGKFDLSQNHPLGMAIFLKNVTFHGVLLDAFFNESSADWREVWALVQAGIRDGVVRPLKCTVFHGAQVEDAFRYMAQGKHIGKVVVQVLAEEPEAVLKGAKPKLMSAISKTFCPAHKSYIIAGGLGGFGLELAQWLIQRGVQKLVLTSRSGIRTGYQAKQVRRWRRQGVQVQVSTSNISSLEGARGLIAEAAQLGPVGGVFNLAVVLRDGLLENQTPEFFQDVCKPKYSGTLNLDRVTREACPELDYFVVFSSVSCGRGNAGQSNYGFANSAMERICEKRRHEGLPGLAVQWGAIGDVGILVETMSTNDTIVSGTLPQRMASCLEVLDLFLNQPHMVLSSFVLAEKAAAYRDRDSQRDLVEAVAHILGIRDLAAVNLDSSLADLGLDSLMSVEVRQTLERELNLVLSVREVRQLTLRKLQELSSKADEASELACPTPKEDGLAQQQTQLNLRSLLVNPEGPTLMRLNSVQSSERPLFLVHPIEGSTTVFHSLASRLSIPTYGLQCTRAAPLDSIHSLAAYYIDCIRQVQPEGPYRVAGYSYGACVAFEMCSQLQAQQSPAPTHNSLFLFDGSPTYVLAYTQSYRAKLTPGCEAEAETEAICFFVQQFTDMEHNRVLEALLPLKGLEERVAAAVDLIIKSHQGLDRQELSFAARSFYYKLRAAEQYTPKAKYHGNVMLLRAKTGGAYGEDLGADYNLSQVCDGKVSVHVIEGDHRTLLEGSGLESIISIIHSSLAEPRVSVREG
Sequence of 60 kDa heat shock protein, mitochondrial (HSPD1) (P10809 27-573): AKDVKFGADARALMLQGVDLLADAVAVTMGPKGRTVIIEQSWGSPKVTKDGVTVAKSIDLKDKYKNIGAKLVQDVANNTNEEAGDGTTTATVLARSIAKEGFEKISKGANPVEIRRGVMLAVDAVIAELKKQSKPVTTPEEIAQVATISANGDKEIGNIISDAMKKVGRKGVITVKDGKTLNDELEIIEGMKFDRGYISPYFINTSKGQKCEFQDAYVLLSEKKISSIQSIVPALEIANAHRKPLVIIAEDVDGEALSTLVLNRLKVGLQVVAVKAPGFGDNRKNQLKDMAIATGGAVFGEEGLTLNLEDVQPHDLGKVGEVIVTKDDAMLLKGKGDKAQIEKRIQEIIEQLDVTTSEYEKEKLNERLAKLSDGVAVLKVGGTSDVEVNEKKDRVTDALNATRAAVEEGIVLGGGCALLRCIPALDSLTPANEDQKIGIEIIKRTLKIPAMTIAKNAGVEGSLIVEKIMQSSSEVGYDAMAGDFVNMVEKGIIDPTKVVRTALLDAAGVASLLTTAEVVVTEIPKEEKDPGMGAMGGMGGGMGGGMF

## CC(=O)Oc1ccc2c(c1)Oc1cc(OC(C)=O)ccc1C21OC(=O)c2cc(C(=O)NCCOCCOCCNC(=O)CCCC(=O)N(CC#N)S(=O)(=O)c3ccc(C(=O)NCCCn4c(Sc5cc6c(cc5I)OCO6)nc5c(N)ncnc54)cc3)ccc21 [compound 11]
[1]; Exp3, HSPD1
  Abundance Ratio: (11) / (11 with PU-H71): 0.857
  Abundance Ratio: (11) / (DMSO): 2.057
  Abundances (Grouped): 11: 57.6
  Abundances (Grouped): 11 with PU-H71: 67.2
[1]; sheet Exp2, HSPD1
  Abundance Ratio: (11) / (11 with PU-H71): 1.035
  Abundance Ratio: (11) / (DMSO): 2.527
  Abundances (Grouped): 11: 61.4
  Abundances (Grouped): 11 with PU-H71: 59.3
[1]; [5]
  Abundance Ratio: (11) / (DMSO): 2.28
[1]; [6]
  Abundance Ratio: (11) / (11 with PU-H71): 0.942
[2]; Exp3, FASN
  Abundance Ratio: (11) / (11 with PU-H71): 0.917
  Abundance Ratio: (11) / (DMSO): 4.35
  Abundances (Grouped): 11: 3505
  Abundances (Grouped): 11 with PU-H71: 3823.4
[2]; [7]
  Abundance Ratio: (11) / (DMSO): 4.652
[2]; [8]
  Abundance Ratio: (11) / (11 with PU-H71): 0.931
[2]; sheet Exp2, FASN
  Abundance Ratio: (11) / (11 with PU-H71): 0.929
  Abundance Ratio: (11) / (DMSO): 4.46
  Abundances (Grouped): 11: 3656.7
  Abundances (Grouped): 11 with PU-H71: 3935.1
[2]; [5]
  Abundance Ratio: (11) / (DMSO): 4.491
[2]; [6]
  Abundance Ratio: (11) / (11 with PU-H71): 0.931
[3]; Exp3, TRAP1
  Abundance Ratio: (11) / (11 with PU-H71): 0.787
  Abundance Ratio: (11) / (DMSO): 2.947
  Abundances (Grouped): 11: 28
[3]; Exp3, TRAP1, with PU-H71
  Abundances (Grouped): 11 with PU-H71: 35.6
[3]; [5]
  Abundance Ratio: (11) / (DMSO): 2.947
[3]; [6]
  Abundance Ratio: (11) / (11 with PU-H71): 0.787
[4]; Exp3, TUBA1B
  Abundance Ratio: (11) / (11 with PU-H71): 0.849
  Abundance Ratio: (11) / (DMSO): 4.864
  Abundances (Grouped): 11: 236.9
  Abundances (Grouped): 11 with PU-H71: 279
[4]; [7]
  Abundance Ratio: (11) / (DMSO): 6.965
[4]; [8]
  Abundance Ratio: (11) / (11 with PU-H71): 0.862
[4]; sheet Exp2, TUBA1B
  Abundance Ratio: (11) / (11 with PU-H71): 0.827
  Abundance Ratio: (11) / (DMSO): 7.231
  Abundances (Grouped): 11: 197.4
  Abundances (Grouped): 11 with PU-H71: 238.8
[4]; [5]
  Abundance Ratio: (11) / (DMSO): 6.965
[4]; [6]
  Abundance Ratio: (11) / (11 with PU-H71): 0.862
